Test results reported in the supplement of paper PMC8967900.

Test system: CCRF-CEM
Test: selective drug sensitivity score (sDSS, relative to normal bone marrow) (sDSS (score)); higher = more potent and effective on the cell line relative to normal bone marrow cells
Conditions: 72 h
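Also: ALL cell lines in 384-well plates, five doses spanning 10,000-fold, each plate scaled between vehicle and 100 µmol/L benzalkonium chloride controls, sDSS an adapted area-under-curve metric.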

| SMILES | selective drug sensitivity score |
| --- | --- |
| C=CCN(/C=C1/C(=O)O[C@H](COC)[C@@]2(C)C1=C(O)C(=O)C1=C2[C@H](OC(C)=O)C[C@]2(C)C(=O)CC[C@@H]12)CC=C [Sonolisib] (top concentration 10000 nM) | -0.66 |
| C[C@H]1CNCCCN1S(=O)(=O)c1cccc2cncc(F)c12 [Ripasudil] (top concentration 10000 nM) | -0.12 |
| C[C@@H](Oc1cc(-c2cnn(C3CCNCC3)c2)cnc1N)c1c(Cl)ccc(F)c1Cl [Crizotinib] (top concentration 1000 nM) | -0.54 |
| CCN(CC)CCCC(C)Nc1ccnc2cc(Cl)ccc12 (stereo not drawn) [Chloroquine] (top concentration 100000 nM) | -2.94 |
| N#CC(c1ccnc(OCc2ccc(CN3CCOCC3)cc2)n1)c1nc2ccccc2s1 (stereo not drawn) [Bentamapimod] (top concentration 10000 nM) | 3.94 |
| COc1cc(N2CCC(N3CCN(C)CC3)CC2)ccc1Nc1ncnc(Nc2ccccc2S(=O)(=O)C(C)C)n1 [ASP3026] (top concentration 10000 nM) | -0.14 |
| COCCOc1cnc2ccn([C@H](C)c3nnc4c(F)cc(-c5cnn(C)c5)cn34)c(=O)c2c1 [AMG-337] (top concentration 10000 nM) | -0.06 |
| Cc1cnc(NC(=O)Nc2cc(Br)c(C)cc2OC[C@@H]2CNCCO2)cn1 [Rabusertib] (top concentration 1000 nM) | 0.06 |
| CNC(=O)c1ccc(-c2cnc3ncc(Cc4ccc5ncccc5c4)n3n2)cc1F [Capmatinib] (top concentration 1000 nM) | 0.04 |
| COc1cc2/c(=N/c3ccc(Br)cc3F)nc[nH]c2cc1OCC1CCN(C)CC1 [Vandetanib] (top concentration 1000 nM) | -0.22 |

Test system: RPMI-8402
Test: as above
Conditions: 72 h

| SMILES | selective drug sensitivity score |
| --- | --- |
| O=C1c2c(O)ccc(O)c2C(=O)c2c(NCCNCCO)ccc(NCCNCCO)c21 [Mitoxantrone] (top concentration 1000 nM) | 6.34 |
| Nc1ncnc2c1c(COc1cccc(Cl)c1)nn2C1CCOCC1 (top concentration 10000 nM) | 0.46 |
| CC1(C)CNc2cc(NC(=O)c3cccnc3NCc3ccncc3)ccc21 [Motesanib] (top concentration 10000 nM) | -0.22 |
| NC(=O)c1cccc(-c2cccc(OC(=O)NC3CCCCC3)c2)c1 [URB597] (top concentration 1000 nM) | -0.46 |
| CCCN(CCC)C(=O)C1=Cc2ccc(-c3ccc(C(=O)N4CCCC4)cc3)cc2N=C(N)C1 [Motolimod] (top concentration 10000 nM) | -2.28 |
| CCCOc1ccn2c(C(C)=O)cc(-c3ccccc3S(C)(=O)=O)c2c1 [GSK2801] (top concentration 10000 nM) | -0.16 |
| Nc1cc(COc2c(Cl)cc(C[C@H](N)C(=O)O)cc2Cl)c2oc(-c3ccccc3)nc2c1 [JPH203] (top concentration 5000 nM) | 0.5 |
| CC/C(=C(\c1ccccc1)c1ccc(OCCN(C)C)cc1)c1ccccc1 [Tamoxifen] (top concentration 10000 nM) | 0.42 |
| NC(=S)N/N=C/c1ncccc1N [Triapine] (top concentration 10000 nM) | 2.38 |
| C=CCN(/C=C1/C(=O)O[C@H](COC)[C@@]2(C)C1=C(O)C(=O)C1=C2[C@H](OC(C)=O)C[C@]2(C)C(=O)CC[C@@H]12)CC=C [Sonolisib] (top concentration 10000 nM) | -0.76 |
| C[C@H]1CNCCCN1S(=O)(=O)c1cccc2cncc(F)c12 [Ripasudil] (top concentration 10000 nM) | 0.98 |
| C[C@@H](Oc1cc(-c2cnn(C3CCNCC3)c2)cnc1N)c1c(Cl)ccc(F)c1Cl [Crizotinib] (top concentration 1000 nM) | -0.54 |
| CCN(CC)CCCC(C)Nc1ccnc2cc(Cl)ccc12 (stereo not drawn) [Chloroquine] (top concentration 100000 nM) | -1.74 |
| N#CC(c1ccnc(OCc2ccc(CN3CCOCC3)cc2)n1)c1nc2ccccc2s1 (stereo not drawn) [Bentamapimod] (top concentration 10000 nM) | 4.94 |
| COc1cc(N2CCC(N3CCN(C)CC3)CC2)ccc1Nc1ncnc(Nc2ccccc2S(=O)(=O)C(C)C)n1 [ASP3026] (top concentration 10000 nM) | 0.56 |
| COCCOc1cnc2ccn([C@H](C)c3nnc4c(F)cc(-c5cnn(C)c5)cn34)c(=O)c2c1 [AMG-337] (top concentration 10000 nM) | -0.06 |
| Cc1cnc(NC(=O)Nc2cc(Br)c(C)cc2OC[C@@H]2CNCCO2)cn1 [Rabusertib] (top concentration 1000 nM) | 0.46 |
| CNC(=O)c1ccc(-c2cnc3ncc(Cc4ccc5ncccc5c4)n3n2)cc1F [Capmatinib] (top concentration 1000 nM) | -0.06 |
| COc1cc2/c(=N/c3ccc(Br)cc3F)nc[nH]c2cc1OCC1CCN(C)CC1 [Vandetanib] (top concentration 1000 nM) | -0.22 |

Test system: MHH-CALL-4
Test: as above
Conditions: 72 h

| SMILES | selective drug sensitivity score |
| --- | --- |
| O=C1c2c(O)ccc(O)c2C(=O)c2c(NCCNCCO)ccc(NCCNCCO)c21 [Mitoxantrone] (top concentration 1000 nM) | 11.1 |
| Nc1ncnc2c1c(COc1cccc(Cl)c1)nn2C1CCOCC1 (top concentration 10000 nM) | -0.64 |
| CC1(C)CNc2cc(NC(=O)c3cccnc3NCc3ccncc3)ccc21 [Motesanib] (top concentration 10000 nM) | -0.22 |
| NC(=O)c1cccc(-c2cccc(OC(=O)NC3CCCCC3)c2)c1 [URB597] (top concentration 1000 nM) | -0.46 |
| CCCN(CCC)C(=O)C1=Cc2ccc(-c3ccc(C(=O)N4CCCC4)cc3)cc2N=C(N)C1 [Motolimod] (top concentration 10000 nM) | -4.48 |
| CCCOc1ccn2c(C(C)=O)cc(-c3ccccc3S(C)(=O)=O)c2c1 [GSK2801] (top concentration 10000 nM) | -0.36 |
| Nc1cc(COc2c(Cl)cc(C[C@H](N)C(=O)O)cc2Cl)c2oc(-c3ccccc3)nc2c1 [JPH203] (top concentration 5000 nM) | 1.2 |
| CC/C(=C(\c1ccccc1)c1ccc(OCCN(C)C)cc1)c1ccccc1 [Tamoxifen] (top concentration 10000 nM) | 0.52 |
| NC(=S)N/N=C/c1ncccc1N [Triapine] (top concentration 10000 nM) | 2.18 |
| C=CCN(/C=C1/C(=O)O[C@H](COC)[C@@]2(C)C1=C(O)C(=O)C1=C2[C@H](OC(C)=O)C[C@]2(C)C(=O)CC[C@@H]12)CC=C [Sonolisib] (top concentration 10000 nM) | -0.06 |
| C[C@H]1CNCCCN1S(=O)(=O)c1cccc2cncc(F)c12 [Ripasudil] (top concentration 10000 nM) | 0.18 |
| C[C@@H](Oc1cc(-c2cnn(C3CCNCC3)c2)cnc1N)c1c(Cl)ccc(F)c1Cl [Crizotinib] (top concentration 1000 nM) | -0.54 |
| CCN(CC)CCCC(C)Nc1ccnc2cc(Cl)ccc12 (stereo not drawn) [Chloroquine] (top concentration 100000 nM) | -1.44 |
| N#CC(c1ccnc(OCc2ccc(CN3CCOCC3)cc2)n1)c1nc2ccccc2s1 (stereo not drawn) [Bentamapimod] (top concentration 10000 nM) | -0.46 |
| COc1cc(N2CCC(N3CCN(C)CC3)CC2)ccc1Nc1ncnc(Nc2ccccc2S(=O)(=O)C(C)C)n1 [ASP3026] (top concentration 10000 nM) | -3.94 |
| COCCOc1cnc2ccn([C@H](C)c3nnc4c(F)cc(-c5cnn(C)c5)cn34)c(=O)c2c1 [AMG-337] (top concentration 10000 nM) | -0.06 |
| Cc1cnc(NC(=O)Nc2cc(Br)c(C)cc2OC[C@@H]2CNCCO2)cn1 [Rabusertib] (top concentration 1000 nM) | 0.16 |
| CNC(=O)c1ccc(-c2cnc3ncc(Cc4ccc5ncccc5c4)n3n2)cc1F [Capmatinib] (top concentration 1000 nM) | -0.06 |
| COc1cc2/c(=N/c3ccc(Br)cc3F)nc[nH]c2cc1OCC1CCN(C)CC1 [Vandetanib] (top concentration 1000 nM) | -0.22 |
